Source: patent US7109341B2, “Therapeutic amides” (Wayne State University, priority 2002, dated 2006)
Several values for one entry are separate records, joined by “and”; a condition that tells them apart may be missing. Identical values can stand only once. Like-named read-outs stand apart in the source and are kept apart here.

How the values were obtained:
[1] = test system: Pancreatic Ductal Adenocarcinoma 03; experiment: Evaluation against early stage Pancreatic Ductal Adenocarcinoma 03 in female BDF1 mice (Table 4); format: in vivo, mouse; details: PO
Description: The higher dose requirement for compound 14e may be a disadvantage over compound 11b (Cage 14).

Human Melanoma LOX = details: IV, qd 1–6, BID 7, total 700 mg/kg
[2] = test system: Mammary Adenocarcinoma 16/C; details: IV
Description: (§1) Pancreatic ductal adenocarcinoma-03, mammary adenocarcinoma-16/C, mammary adenocarcinoma-17/Adr, and human melanoma LOX were used in the studies. Tumors were maintained in the mouse strain of origin (C57B1/6 for Panc-03 and C3H for the mammary tumors). Balb/c SCID mice (B and T cell deficient) were used for tumor maintenance and chemotherapy trials involving the human melanoma LOX. Tumors were transplanted into the appropriate F1 hybrid (B6D2F1=C57B 1/6 female× DBA/2 male) or the strain of origin for the chemotherapy trials. Individual mouse body weights for each experiment were within 5 grams, and all mice were over 17 grams at the start of therapy. The mice were supplied food and water ad libitum.
(§2) Animals were pooled, implanted subcutaneously with 30 to 60 mg tumor fragments by a 12 gauge trocar on day 0, and again pooled before unselective distribution to the various treatment and control groups. For early stage treatment, chemotherapy was started within 1 to 3 days after tumor implantation while the number of cells was relatively small (10^7 to 10^8 cells). For upstaged or advanced staged trials, the tumors were allowed to grow for five or more days before treatment was started. Tumors were measured with a caliper twice weekly. […] Tumor weights are estimated from two-dimensional measurements:
(§3) Tumor weight (in mg)=(a×b^2)/2, where a and b are the tumor length and width in (mm), respectively.
a) Tumor growth delay (T−C value), where T is the median time (in days) required for the treatment group tumors to reach a predetermined size (e.g., 1,000 mg), and C is the median time (in days) for the control group tumors to reach the same size. Tumor-free survivors were are excluded from these calculations (cures are tabulated separately).
(§4) b) Calculation of tumor cell kill for subcutaneously (SC) growing tumors. […] The conversion of the T−C values to log10 cell kill is possible because the Td of tumors re-growing post treatment (Rx) approximates the Td values of the tumors in untreated control mice.
It should be noted that an activity rating of +++ to ++++ is needed to effect partial regression (PR) or complete regression (CR) of 100 to 300 mg size masses of most transplanted solid tumors of mice. Thus, an activity rating of + or ++ would not be scored as active by usual clinical criteria. A PR is a reduction in tumor mass to less than 50% of pretreatment size. A CR is a reduction in tumor mass to below palpable size (i.e., reduction to zero detectable mass).
(§5) The T/C value in percent is an indication of anti-tumor effectiveness: A T/C=0% means no tumor growth. A T/C=100% means no anti-tumor activity, i.e., the treated and control tumors grew equally. […] A T/C value<10% is considered to indicate highly significant anti-tumor activity, and is the level used by NCI to justify a clinical trial if toxicity, formulation, and certain other requirements are met (termed DN-2 level activity).
(§6) Compounds as their sodium salts were prepared in a 1% sodium bicarbonate solution, H2O or phosphate buffered saline (PBS), with pH adjusted to 7.0 to 7.5 with HCl, and administered intravenously (IV) or orally (PO), at injection volumes of 0.2 mL per injection.

[3] = test system: Pancreatic Ductal Adenocarcinoma #03
Description: as §1, §2, §3
a) Tumor growth delay (T−C value), where T is the median time (in days) required for the treatment group tumors to reach a predetermined size (e.g., 1,000 mg), and C is the median time (in days) for the control group tumors to reach the same size. Tumor-free survivors were are excluded from these calculations (cures are tabulated separately). This value is an important criterion of anti-tumor effectiveness because it allows the quantification of tumor cell kill.
as §4
In selected cases, both for historic in vivo evaluation data as well as data presented here, it is of value to compare log kill numbers from trials of markedly different testing schedules. […] It should be noted that an activity rating of +++ to ++++ is needed to effect partial regression (PR) or complete regression (CR) of 100 to 300 mg size masses of most transplanted solid tumors of mice. Thus, an activity rating of + or ++ would not be scored as active by usual clinical criteria. A PR is a reduction in tumor mass to less than 50% of pretreatment size. A CR is a reduction in tumor mass to below palpable size (i.e., reduction to zero detectable mass).
as §5, §6

[4] = test system: Mammary Adenocarcinoma 16/C; details: Cage 2, IV, BID 1–5, total 600 mg/kg
Description: Table 7. […] The animal was then re-implanted with Mam16/C/71.

[5] = Cage 2, 120 mg/kg/inj 2×/day days 3–9, total 1680 mg/kg
[6] = Cage 3, 60 mg/kg/inj 2×/day days 3–9, total 840 mg/kg
[7] = Cage 4, 30 mg/kg/inj 2×/day days 3–9, total 420 mg/kg
[8] = Cage 4, d1, 3–5, 7, 9, 11, 13, 15, total 1610 mg/kg
[9] = Cage 5, d1, 3–7, 9, total 665 mg/kg
[10] = Cage 3, IV-SC, qd 3–5, 8–11, BID 6, 7, total 780 mg/kg
[11] = Cage 4, IV-SC, qd 3–5, 8–11, BID 6, 7, total 390 mg/kg
[12] = Cage 5, IV, qd 3, 4, total 30 mg/kg

CC(Oc1ccc(Oc2ccc3ccc(Cl)cc3n2)cc1)C(=O)N(C)C (stereo not shown) [Compound 14e, 2-{4-((7-Chloro-2-quinolinyl)oxy)phenoxy}propiondimethylamide]
% Body Wt Loss at Nadir [1, 5]: +4.3% | % T/C mass [1, 5]: 8.3% | Day of Nadir [1, 5]: 9 days | Drug Deaths [1, 5]: 0/5 | Growth Delay [1, 5]: 16.5 days | Log Kill [1, 5]: 2.5 | Median Tumor Mass on Day 14 (Range) [1, 5]: 126 | Tumor Free day-37 [1, 5]: 0/5 | toxicity observations [1, 5]: no evident toxicity | % Body Wt Loss at Nadir [1, 6]: +3.3% | % T/C mass [1, 6]: 15% | Activity Rating [1, 6]: +++ (2.0–2.8) | Day of Nadir [1, 6]: 10 days | Drug Deaths [1, 6]: 0/5 | Growth Delay [1, 6]: 14.5 days | Log Kill [1, 6]: 2.2 | Median Tumor Mass on Day 14 (Range) [1, 6]: 234 | Tumor Free day-37 [1, 6]: 0/5 | % Body Wt Loss at Nadir [1, 7]: 0% | % T/C mass [1, 7]: 37% | Day of Nadir [1, 7]: 9 days | Drug Deaths [1, 7]: 0/5 | Growth Delay [1, 7]: 3.5 days | Log Kill [1, 7]: 0.5 | Median Tumor Mass on Day 14 (Range) [1, 7]: 567 | Tumor Free day-37 [1, 7]: 0/5

CC(Oc1ccc(Oc2cnc3ccc(Cl)cc3n2)cc1)C(=O)NCCS(=O)(=O)[O-].[Na+] [Compound 14f (R)]
Comments (activity rating) (Human Melanoma LOX; Cage 2): (+) (0.7–1.2) | Drug Death (day of death) (Human Melanoma LOX; Cage 2): no drug deaths and 0/5 | Log Cell Kill (Human Melanoma LOX; Cage 2): 0.8 | Median Tumor Burden in mg on d 9 (range) (Human Melanoma LOX; Cage 2): 651 mg | T-C (Human Melanoma LOX; Cage 2): 3.0 days | T/C % (Human Melanoma LOX; Cage 2): 47% | Time to 1000 mg days (range) (Human Melanoma LOX; Cage 2): 11.0 days | Tumor Free on d 18 (Human Melanoma LOX; Cage 2): 0/5 | Day of Wt. Loss Nadir [2, 8]: 14 days | Drug Death (day of death) [2, 8]: 0/5 | Log Cell Kill [2, 8]: 4.2 | Mean Body Wt. Loss in g/mouse [2, 8]: −0.8 g/mouse | Median Tumor Burden in mg on day 7 (range) [2, 8]: 0 mg | Percent Body Weight Loss [2, 8]: −3.0% | T-C [2, 8]: 14 days | T/C % [2, 8]: 0% | Time to 1000 mg in days (range) [2, 8]: 20 days | Tumor Free on d28 [2, 8]: no cures and 0/5 | day of full body weight recovery [2, 8]: ≤ 16 days | Day of Wt. Loss Nadir [2, 9]: 5 days | Drug Death (day of death) [2, 9]: 0/5 | Log Cell Kill [2, 9]: 1.8 | Mean Body Wt. Loss in g/mouse [2, 9]: −0.8 g/mouse | Median Tumor Burden in mg on day 7 (range) [2, 9]: 260 mg | Percent Body Weight Loss [2, 9]: −2.9% | T-C [2, 9]: 6 days | T/C % [2, 9]: 14% | Time to 1000 mg in days (range) [2, 9]: 12 days | Tumor Free on d28 [2, 9]: 0/5

CC(Oc1ccc(Oc2cnc3ccc(Cl)cc3n2)cc1)C(=O)NCCS(=O)(=O)[O-].[Na+] [Compound 14f (S)]
Comments (activity rating) (Human Melanoma LOX; Cage 3): Inactive | Drug Death (day of death) (Human Melanoma LOX; Cage 3): 0/5 | Log Cell Kill (Human Melanoma LOX; Cage 3): 0.3 | Median Tumor Burden in mg on d 9 (range) (Human Melanoma LOX; Cage 3): 994 mg | T-C (Human Melanoma LOX; Cage 3): 1.0 days | T/C % (Human Melanoma LOX; Cage 3): 71% | Time to 1000 mg days (range) (Human Melanoma LOX; Cage 3): 9.0 days | Tumor Free on d 18 (Human Melanoma LOX; Cage 3): 0/5

CC(Oc1ccc(Oc2cnc3ccc(Cl)cc3n2)cc1)C(=O)NCCS(=O)(=O)[O-].[Na+] (stereo not shown) [Compound 14f, Sodium (2-(4-(7-chloro-2-quinoxalinyl)oxy)phenoxy)propionylamino ethanesulfonate]
Drug Death (day of death) [3, 10]: 0/5 | Log Cell Kill [3, 10]: 1.67 | Median Tumor Burden in mg on d17 (range) [3, 10]: 126 mg | T-C [3, 10]: 10.0 days | T/C % [3, 10]: 10% | Time to 1000 mg in days (range) [3, 10]: 26 days | Tumor Free on d35 [3, 10]: 0/5 | Comments (activity rating) [3, 11]: Inactive | Drug Death (day of death) [3, 11]: 0/5 | Log Cell Kill [3, 11]: 0.58 | Median Tumor Burden in mg on d17 (range) [3, 11]: 600 mg | T-C [3, 11]: 3.5 days | T/C % [3, 11]: 50% | Time to 1000 mg in days (range) [3, 11]: 19.5 days | Tumor Free on d35 [3, 11]: 0/5 | Comments (activity rating) [3, 12]: Inactive | Drug Death (day of death) [3, 12]: 0/5 | Log Cell Kill [3, 12]: 0.0 | Median Tumor Burden in mg on d17 (range) [3, 12]: 1420 mg | T-C [3, 12]: 0.0 days | T/C % [3, 12]: >100% | Time to 1000 mg in days (range) [3, 12]: 16 days | Tumor Free on d35 [3, 12]: 0/5 | Day of Wt. Loss Nadir ([3]; mouse, in vivo): 11 days

CC(Oc1ccc(Oc2ccc3ccc(Br)cc3n2)cc1)C(=O)NCCS(=O)(=O)[O-].[Na+] (stereo not shown) [Compound 14g, Sodium (2-(4-(7-bromo-2-quinolinyl)oxy)phenoxy)propionylamino ethanesulfonate]
Day of Wt. Loss Nadir [4]: 4 days | Drug Death (day of death) [4]: 0/6 | Log Cell Kill [4]: 0.9 | Mean Body Wt. Loss in g/mouse [4]: −2.3 g/mouse | Median Tumor Burden in mg on d 9 (range) [4]: 230 mg | T-C [4]: 3.5 days | T/C % [4]: 14% | Time to 1,000 mg in days (range) [4]: 11.5 days | day of full body weight recovery [4]: ≤ 10 days | Percent Body Weight Loss ([4]; listed as 14g (Racemic)): −11.0% | Tumor Free on d 161 ([4]; listed as 14g (Racemic)): 1/6 | Comments (activity rating) ([4]; listed as 14g Racemic): + (0.7–1.2) | Percent Body Weight Loss ([4]; listed as 14g Racemic): 11% | Tumor Free on d 161 ([4]; listed as 14g Racemic): One animal remained tumor free | Percent Body Weight Loss ([4]; listed as 14g racemic): −11% | Tumor Free on d 161 ([4]; listed as 14g racemic): ⅕
